# Assay results published in patent US12421276B2 (priority 2016, dated 2025).
# Values joined by “and” are separate entries in the source; they are usually repeats but may differ in a detail not shown here. Equal entries are not always repeated. Where two headings read alike, the source gives them in different places. Where a SMILES comes first, the peptide text is derived from it. [ ]: non-standard residue; d: D form. The star is where a group is joined. pY = N[CH](Cc1ccc(OP(=O)(O)O)cc1)C(=O)O; Hexanoyl = CCCCCC(=O)*; Ahx = NCCCCCC(=O)O
# Experiments:
# [1] = Metabolic stability in simulated intestinal fluid (SIF), pH 6.8, with or without pancreatin; format: in vitro ADME; conditions: 5 μM, 37° C.; for half-life: simulated gi fluid
# Method: (§1) Metabolic Stability in SIF and SGF (Simulated Intestinal and Gastric Fluid)
# Buffer 3=SIF without enzyme
# Buffer 4=SIF with 1% pancreatin
# (§2) SIF was prepared freshly with 8.7 mM NaOH, 28.65 mM NaH2PO4, 105.85 mM NaCl, with a final pH of 6.8. SGF was prepared freshly with 34.2 mM NaCl, with a final pH of 1.2. Enzymes such as pepsin or pancreatin were added to some buffers. Human and rat plasma (K2 EDTA) were purchased from BioreclamationIVT.
# (§3) Compounds were dissolved as 1.5 mM DMSO stocks. Compounds were transferred to SIF, SGF, or plasma at 5 μM on a 96-well deep well plate. After mixing, samples were transferred to several 96-well plates (25 μL/well), and incubated at 37° C. The extent of metabolism was calculated as the disappearance of the test compound, compared to the 0-min control reaction incubations. Candesartan Cilexetil and omeprazole were included as positive controls for SIF and SGF, respectively, to verify assay performance.
# (§4) At each of the time points, 150 μL of quench solution (100% acetonitrile with 0.1% formic acid) with internal standard (bucetin for positive ESI mode and warfarin for negative ESI mode) was transferred to each well. Plates were sealed and centrifuged at 4° C. for 15 minutes at 4000 rpm. The supernatant was transferred to fresh plates for LC/MS/MS analysis.
# (§5) Elution conditions are detailed in the table below.
# (§6) Initial rates of the clearance of test compounds were calculated using linear regression of semi-log plot of % remaining of compounds versus time. The elimination rate constant (equals to −slope) of the linear regression was then used to determine t½ values.
# [2] = format: in vivo, rat; conditions: rat, dosed as prodrug, 10 mg/kg equivalent of Base Structure
# Method: • 1. Eight (8) male JVC SD rats (purchased from Charles River Lab) were monitored daily for body condition and health status during the 3-5 days acclimation period. The rats were randomly assigned into […] (n=4). • 2. […] The dosed rats were individually placed into a metabolic cage, and have access to food and water at all times. The urine from each rat was collected daily from the metabolic cages, and kept in dry ice. • 4. At predose (0 min), 5 min, 15 min, 30 min, 1 hr, 2 hr, 8 hr, and 24 hr post dosing, approximately 200 ul blood samples were collected from each rat and transferred to EDTA tubes. • 5. The blood samples in EDTA vials were centrifuged at 4° C. and 6,000 rpm for 10 minutes to generate ˜100 μl of plasma per sample. Blood samples were processed as quickly as possible and remain no longer than 2 min at room temperature and no longer than 15 minutes at 4° C. prior to processing. • 6. All samples were transferred for bioanalytic assay using LCMS
# [3] = Plasma stability study, human plasma; format: in vitro ADME; conditions: Human plasma, 1 μM, 37° C.
# Method: (§7) Human and rat plasma (K2 EDTA) were obtained from Bioreclamation.
# (§8) Compounds were dissolved as 0.3 mM DMSO stocks. Compounds were transferred to the plasma at 1 μM on a 96-well deep well plate. After mixing, samples were transferred to several 96-well plates (25 μL/well), and incubated at 37° C. The extent of metabolism was calculated as the disappearance of the test compound, compared to the 0-min control reaction incubations. Propantheline was included as a positive control to verify assay performance.
# as §4, with “(50% acetonitrile, 50% methanol” for “(100% acetonitrile”, “0.05%” for “0.1%”
# as §5, §6
# [4] = Metabolic stability in simulated gastric fluid (SGF), pH 1.2, with or without pepsin; format: in vitro ADME; conditions: 5 μM, 37° C.; for half-life: simulated gi fluid
# Method: as §1
# Buffer 1=SGF without enzyme
# Buffer 2=SGF with 0.32% pepsin
# as §2, §3, §4, §5, §6
# [5] = Plasma stability study, rat plasma; format: in vitro ADME; conditions: Rat plasma, 1 μM, 37° C.
# Method: as §7, §8
# as §4, with “(50% acetonitrile, 50% methanol” for “(100% acetonitrile”, “0.05%” for “0.1%”
# as §5, §6
# [6] = analyte Parent (Base Structure), Average
# [7] = analyte Parent (Base Structure), Combined (average ± std. dev.)
# [8] = analyte Parent (Base Structure), individual animals, 10 mg/kg
# [9] = analyte Prodrug, Combined (average ± std. dev.)
# [10] = analyte Prodrug, individual animals
structure (smiles),measurement,setting,value
CCCCCC(=O)N1C(Cc2ccc(OP(=O)([O-])[O-])cc2)C(=O)N(C(C(=O)NCCCCCC(N)=O)C(C)CC)C12CCN(C)CC2.[Na+].[Na+] (stereo not drawn) [Compound 2],SIF Stability (pH 6.8) 0 min,[1]; +Pancreatin (1%),100%
same,SIF Stability (pH 6.8) 60 min,[1]; +Pancreatin (1%),94%
same,SIF Stability (pH 6.8) 120 min,[1]; +Pancreatin (1%),51%
same,SIF Stability (pH 6.8) 240 min,[1]; +Pancreatin (1%),34%
same,half-life,"[1]; pH 6.8, +Pancreatin (1%)",2.37 h
same,half-life,"[1]; pH 6.8, −Pancreatin",13.4 h
same,SIF Stability (pH 6.8) 0 min,[1]; −Pancreatin,100%
same,SIF Stability (pH 6.8) 60 min,[1]; −Pancreatin,82%
same,SIF Stability (pH 6.8) 120 min,[1]; −Pancreatin,82%
same,SIF Stability (pH 6.8) 240 min,[1]; −Pancreatin,78%
same,Cl/F_obs,[2]; [6],0.2421 (mg/kg)/(ng/ml)/h
same,Vz/F_obs,[2]; [6],6.571 (mg/kg)/(ng/ml)
same,Cl/F_obs,[2]; [7],0.2 ± 0.1 (mg/kg)/(ng/ml)/h
same,Vz/F_obs,[2]; [7],6.6 ± 6.9 (mg/kg)/(ng/ml)
same,Cl/F_obs,[2]; [8],0.1263 (mg/kg)/(ng/ml)/h and 0.2902 (mg/kg)/(ng/ml)/h and 0.3099 (mg/kg)/(ng/ml)/h
same,Vz/F_obs,[2]; [8],0.6603 (mg/kg)/(ng/ml) and 4.961 (mg/kg)/(ng/ml) and 14.09 (mg/kg)/(ng/ml)
same,AUMC 0-inf_obs,"[2]; analyte Prodrug, Average",0 ng/ml * h^2
same,Cl/F_obs,"[2]; analyte Prodrug, Average",0 (mg/kg)/(ng/ml)/h
same,Lambda_z,"[2]; analyte Prodrug, Average",0 h⁻¹
same,Tlag,"[2]; analyte Prodrug, Average",0 h
same,Tmax,"[2]; analyte Prodrug, Average",0 h
same,Vz/F_obs,"[2]; analyte Prodrug, Average",0 (mg/kg)/(ng/ml)
same,AUMC 0-inf_obs,[2]; [9],0 ng/ml * h^2
same,Cl/F_obs,[2]; [9],0 (mg/kg)/(ng/ml)/h
same,Lambda_z,[2]; [9],0 h⁻¹
same,Tlag,[2]; [9],0 h
same,Tmax,[2]; [9],0 h
same,Vz/F_obs,[2]; [9],0 (mg/kg)/(ng/ml)
same,AUMC 0-inf_obs,[2]; [10],0 ng/ml * h^2
same,Cl/F_obs,[2]; [10],0 (mg/kg)/(ng/ml)/h
same,Lambda_z,[2]; [10],0 h⁻¹
same,Tlag,[2]; [10],0 h
same,Tmax,[2]; [10],0 h
same,Vz/F_obs,[2]; [10],0 (mg/kg)/(ng/ml)
same,half-life,[3],7.08 h
same,Plasma Stability (% Parent Remaining) 0 min,[3],100%
same,Plasma Stability (% Parent Remaining) 60 min,[3],113%
same,Plasma Stability (% Parent Remaining) 120 min,[3],90%
same,Plasma Stability (% Parent Remaining) 240 min,[3],72%
same,SGF Stability (pH 1.2) 0 min,[4]; +Pepsin (0.32%),100%
same,SGF Stability (pH 1.2) 60 min,[4]; +Pepsin (0.32%),94%
same,SGF Stability (pH 1.2) 120 min,[4]; +Pepsin (0.32%),89%
same,SGF Stability (pH 1.2) 240 min,[4]; +Pepsin (0.32%),73%
same,half-life,"[4]; pH 1.2, +Pepsin (0.32%)",8.62 h
same,half-life,"[4]; pH 1.2, −Pepsin",7.17 h
same,SGF Stability (pH 1.2) 0 min,[4]; −Pepsin,100%
same,SGF Stability (pH 1.2) 60 min,[4]; −Pepsin,84%
same,SGF Stability (pH 1.2) 120 min,[4]; −Pepsin,78%
same,SGF Stability (pH 1.2) 240 min,[4]; −Pepsin,67%
same,half-life,[5],18.1 h
same,Plasma Stability (% Parent Remaining) 0 min,[5],100%
same,Plasma Stability (% Parent Remaining) 60 min,[5],82%
same,Plasma Stability (% Parent Remaining) 120 min,[5],77%
same,Plasma Stability (% Parent Remaining) 240 min,[5],83%
CCCCCC(=O)NC(Cc1ccc(OP(=O)([O-])O)cc1)C(=O)NC(C(=O)NCCCCCC(N)=O)C(C)CC.[Na+] (stereo not drawn) [Compound A30] (Hexanoyl-[pY]-Ile-[Ahx]-NH2; configuration not given here),SIF Stability (pH 6.8) Half-Life (min),[1]; +Pancreatin (1%),156.6 min
same,SIF Stability (pH 6.8) 0 min,[1]; +Pancreatin (1%),100%
same,SIF Stability (pH 6.8) 60 min,[1]; +Pancreatin (1%),70%
same,SIF Stability (pH 6.8) 120 min,[1]; +Pancreatin (1%),51%
same,SIF Stability (pH 6.8) 240 min,[1]; +Pancreatin (1%),34%
same,SIF Stability (pH 6.8) Half-Life (min),[1]; −Pancreatin,68.4 min
same,SIF Stability (pH 6.8) 0 min,[1]; −Pancreatin,100%
same,SIF Stability (pH 6.8) 60 min,[1]; −Pancreatin,43%
same,SIF Stability (pH 6.8) 120 min,[1]; −Pancreatin,22%
same,SIF Stability (pH 6.8) 240 min,[1]; −Pancreatin,8%
same,Plasma Stability Half-Life,[3],1.4 h
same,Plasma Stability (% Parent Remaining) 0 min,[3],100%
same,Plasma Stability (% Parent Remaining) 60 min,[3],36%
same,Plasma Stability (% Parent Remaining) 120 min,[3],20%
same,Plasma Stability (% Parent Remaining) 240 min,[3],12%
same,SGF Stability (pH 1.2) Half-Life (min),[4]; +Pepsin (0.32%),248.3 min
same,SGF Stability (pH 1.2) 0 min,[4]; +Pepsin (0.32%),100%
same,SGF Stability (pH 1.2) 60 min,[4]; +Pepsin (0.32%),95%
same,SGF Stability (pH 1.2) 120 min,[4]; +Pepsin (0.32%),64%
same,SGF Stability (pH 1.2) 240 min,[4]; +Pepsin (0.32%),54%
same,SGF Stability (pH 1.2) Half-Life (min),[4]; −Pepsin,1713.6 min
same,SGF Stability (pH 1.2) 0 min,[4]; −Pepsin,100%
same,SGF Stability (pH 1.2) 60 min,[4]; −Pepsin,95%
same,SGF Stability (pH 1.2) 120 min,[4]; −Pepsin,98%
same,SGF Stability (pH 1.2) 240 min,[4]; −Pepsin,89%
same,Plasma Stability Half-Life,[5],21.79 h
same,Plasma Stability (% Parent Remaining) 0 min,[5],100%
same,Plasma Stability (% Parent Remaining) 60 min,[5],88%
same,Plasma Stability (% Parent Remaining) 120 min,[5],87%
same,Plasma Stability (% Parent Remaining) 240 min,[5],86%
